For series [1], the target named is T1, PSMA (Homo sapiens, UniProt Q04609).
T1 construct: host or cells: LNCaP human prostate cancer cells
Put plainly: Competitive binding assay (IC50) on LNCaP cells with ([125I]I-BA)KuE as radioligand. To be noted: ([125I]I-BA)KuE 0.2 nM, HBSS (1% BSA), 4 °C, 1 h. On the procedure:
(§1) PSMA-positive LNCaP cells (300265; Cell Lines Service, Eppelheim, Germany) were cultivated in Dulbecco’s modified Eagle medium/Nutrition Mixture F-12 with GlutaMAX (1/1, DMEM-F12, Thermo Fisher Scientific, Darmstadt, Germany) supplemented with 10% fetal bovine serum (Merck KGaA, Darmstadt, Germany) and kept at 37 °C in a humidified 5% CO2 atmosphere. One day (24 ± 2 h) prior to all in vitro experiments, the cultivated LNCaP cells were harvested using a mixture of trypsin/ethylenediamine-tetraacetic acid (0.05%/0.02%) in PBS (Thermo Fisher Scientific, Darmstadt, Germany) and centrifuged at 1300 rpm (ca. 190×g) for 3 min at room temperature (Heraeus Megafuge 16, Thermo Fisher Scientific, Darmstadt, Germany). After centrifugation, the supernatant was disposed and the cell pellet was resuspended in culture medium. Cells were counted with a Neubauer hemocytometer (Paul Marienfeld GmbH & Co. KG, Lauda-Königshofen, Germany) and seeded in 24-well plates.
(§2) Detailed information on affinity and internalization experiments is provided in the supporting information. […] IC50 values of (^natI-BA)KuE were determined on the same day for monitoring assay performance and to identify abnormal deviations in uptake and/or affinity. […] Data were corrected for non-specific binding and normalized to the specific internalization observed for the radioiodinated reference compound (n = 3).
The culture medium was removed and the cells were washed with 500 µL of Hank’s balanced salt solution (HBSS) (Merck KGaA, Darmstadt, Germany), containing 1% bovine serum albumin (BSA) (Merck KGaA, Darmstadt, Germany). Afterwards, 200 µL of HBSS (1% BSA) were added to each well and equilibrated on ice (4 °C) for 15 min. […] Experiments were carried out in triplicates for each concentration. The final concentrations of unlabeled ligand ranged from 10^-11 - 10^-5 M and the final radioligand concentration was 0.2 nM in all binding assays. The cells were incubated for one hour at 4 °C. Incubation was terminated by removal of the incubation medium. The cells were washed with 250 µL of HBSS (1% BSA) and the wash medium was combined with the respective supernatant. This fraction represents the amount of free radioligand. The cells were lysed by addition of 250 µL of 1 M aqueous NaOH. The lysate of each well was transferred to the respective vial as well as 250 µL of 1 M NaOH used for rinsing the well. Quantification of the amount of free and bound activity was performed in a γ-counter. The corresponding IC50 values were calculated using the GraphPad PRISM7 software.

Series [2] concerns LNCaP cells. Put plainly: Internalization study of 177Lu-labeled ligands in LNCaP cells, normalized to ([125I]I-BA)KuE. In kind it is cell-based, human. To be noted: 1 h, 37 °C, 1.0 nM 177Lu-compound, normalized to ([125I]I-BA)KuE. On the procedure:
as §1, §2
The culture medium was removed and the cells were washed with 500 µL of DMEM-F12 containing 5% BSA. Afterwards, 200 µL of DMEM-F12 (5% BSA) were added to each well and left to equilibrate at 37 °C for 15 min. 25 µL of DMEM-F12 (5% BSA) were added to each well, followed by the addition of 25 µL of the respective ^177Lu-labeled ligand (10.0 nM in DMEM-F12 (5% BSA)). For blocking PSMA-specific binding and uptake, 25 µL of 2-(phosphonomethyl)pentane-1,5-dioic acid (2-PMPA) (100 µM in DMEM (5% BSA)) instead of DMEM-F12 (5% BSA) were added prior to radiotracer addition. […] Each experiment (control and blockade) was performed in triplicate. […] Incubation was terminated by placing the plate on ice (4 °C, 1 min) and removal of the incubation medium. The cells were washed with 250 µL of ice-cold PBS and the wash medium was combined with the respective supernatant. This fraction represents the amount of free radioligand. 250 µL of ice-cold 2-PMPA (10 µM in PBS) were added and the cells were incubated for 10 min at 4 °C. Afterwards, the cells were rinsed again with 250 µL of ice-cold PBS and the wash medium was combined with the respective supernatant. This fraction represents the amount of cell surface-bound ligand. In the last step, the cells were lysed by addition of 250 µL of 1 M aqueous NaOH. After 20 min, the lysate of each well was transferred to the respective vial as well as 250 µL of 1 M NaOH used for rinsing the well. This fraction represents the amount of internalized radioligand. Quantification of the amount of free, cell surface-bound and internalized activity was performed in a γ-counter.

Series [3] relates to LNCaP tumor xenograft-bearing CB17-SCID mice. The series is classed as in vivo, mouse. On the procedure: All animal experiments were conducted in accordance with general animal welfare regulations in Germany (German animal protection act, as amended on 18.05.2018, Art. 141 G v. 29.3.2017 I 626, approval no. 55.2–1-54-2532-71-13) and the institutional guidelines for the care and use of animals. To establish tumor xenografts, LNCaP cells (approx. 10^7 cells) were suspended in 200 μL of a 1/1 mixture (v/v) of DMEM F-12 and Matrigel (BD Biosciences, Heidelberg, Germany) and inoculated subcutaneously onto the right shoulder of 6–8 weeks old CB17-SCID mice (Charles River Laboratories, Sulzfeld, Germany). Mice were used for experiments when tumor size reached 5–10 mm in diameter (3–6 weeks after inoculation).
Approximately 2–10 MBq (0.20 nmol) of the ^177Lu-labeled PSMA inhibitors were injected into the tail vein of LNCaP tumor xenograft-bearing male CB17-SCID mice (n = 3 to 5). They were sacrificed by CO2 asphyxiation and cervical dislocation either 1 h or 24 h post injection (p.i.) (n = 3 for [^177Lu]Lu-5, -6 & -7 (proinhibitor compounds I-III), n = 4 for [^177Lu]Lu-10 (alkyne), n = 5 for [^177Lu]Lu-3 (carbamate I) and n = 5 for [^177Lu]Lu-11 (tetrazole)). Selected organs were removed, weighed and organ activities measured in a γ-counter.
Approximately 2 - 10 MBq (0.20 nmol) of the ^177Lu-labeled PSMA inhibitors were injected into the tail vein of LNCaP tumor xenograft-bearing male CB17-SCID mice (n = 3 to 5). They were sacrificed by CO2 asphyxiation and cervical dislocation either 1 h or 24 h post injection (p.i.) (n = 3 for [^177Lu]Lu-5, -6 & -7 (proinhibitor compounds I-III), n = 4 for [^177Lu]Lu-10 (alkyne) and n = 5 for [^177Lu]Lu-3 (carbamate I) and n = 5 for [^177Lu]Lu-11 (tetrazole)). Selected organs were removed, weighed and organ activities measured in a γ-counter.

SMILES strings stand for the structures. Read-outs that look alike come from different tables or passages of the source.

Usually IC50 stands for the midpoint of a concentration-inhibition curve. Higher therefore signals lower potency.

T1 sequence (Q04609 whole entry): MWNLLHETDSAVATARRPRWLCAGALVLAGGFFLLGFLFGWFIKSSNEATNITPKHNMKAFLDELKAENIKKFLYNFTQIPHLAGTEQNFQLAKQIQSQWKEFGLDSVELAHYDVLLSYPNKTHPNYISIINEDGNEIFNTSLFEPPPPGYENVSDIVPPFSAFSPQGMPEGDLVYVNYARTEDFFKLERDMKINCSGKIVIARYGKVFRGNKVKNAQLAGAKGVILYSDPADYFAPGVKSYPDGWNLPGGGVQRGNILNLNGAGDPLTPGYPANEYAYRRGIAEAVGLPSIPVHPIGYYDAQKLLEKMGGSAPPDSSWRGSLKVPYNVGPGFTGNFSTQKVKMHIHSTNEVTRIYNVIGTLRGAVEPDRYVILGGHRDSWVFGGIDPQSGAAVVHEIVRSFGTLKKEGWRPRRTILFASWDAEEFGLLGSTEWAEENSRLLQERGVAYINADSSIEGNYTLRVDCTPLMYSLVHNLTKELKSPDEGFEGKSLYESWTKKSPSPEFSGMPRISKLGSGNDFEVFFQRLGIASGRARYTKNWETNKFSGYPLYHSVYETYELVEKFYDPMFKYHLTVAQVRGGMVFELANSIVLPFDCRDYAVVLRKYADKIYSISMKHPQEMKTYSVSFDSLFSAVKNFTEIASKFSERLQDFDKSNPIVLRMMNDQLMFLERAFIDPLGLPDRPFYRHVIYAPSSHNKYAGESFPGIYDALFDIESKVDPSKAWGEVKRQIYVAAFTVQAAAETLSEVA

`CCCCC[C@H](NC(=O)N[C@@H](CCC(=O)N[C@H](CCCNC(=O)CCC(=O)NCCCC[C@@H](NC(=O)[C@@H](CNC(=O)c1ccc([Si](F)(C(C)(C)C)C(C)(C)C)cc1)NC(=O)CN1CCN(CC(=O)[O-])CCN(CC(=O)[O-])CCN(CC(=O)[O-])CC1)C(=O)O)C(=O)O)C(=O)O)C(=O)O.[Lu+3]` [^natLu-8] returned an IC50 in series [1] above 2000 nM.

`CC(C)(C)[Si](F)(c1ccc(C(=O)NC[C@@H](NC(=O)CN2CCN(CC(=O)[O-])CCN(CC(=O)[O-])CCN(CC(=O)[O-])CC2)C(=O)N[C@H](CCCCNC(=O)CCC(=O)NCCC[C@@H](NC(=O)CC[C@H](NC(=O)N[C@@H](Cc2ccco2)C(=O)O)C(=O)O)C(=O)O)C(=O)O)cc1)C(C)(C)C.[Lu+3]` [^natLu-9]: the IC50 in series [1] was above 440 nM.

Regarding `CC(C)(C)[Si](F)(c1ccc(C(=O)NC[C@@H](NC(=O)CN2CCN(CC(=O)[O-])CCN(CC(=O)[O-])CCN(CC(=O)[O-])CC2)C(=O)N[C@H](CCCCNC(=O)CCC(=O)NCCC[C@@H](NC(=O)CC[C@H](NC(=O)O[C@@H](CCC(=O)O)C(=O)O)C(=O)O)C(=O)O)C(=O)O)cc1)C(C)(C)C.[Lu+3]` [^natLu/[^177Lu]Lu-3], in series [2], the “%Internalization compared to the reference” value (“%Internalization” below) is reported as 1 h: 67.8 ± 0.5%. Besides, in series [3] (1 h p.i.), the “Biodistribution Adrenals” value was found to be 1.46 ± 0.70 % ID/g, the “Biodistribution Blood” value came to 0.97 ± 0.18 % ID/g, the “Biodistribution Bone” value is given as 0.18 ± 0.02 % ID/g and the “Biodistribution Heart” value was determined as 0.36 ± 0.04 % ID/g. Besides, in series [3] (1 h p.i.), the “Biodistribution Intestine” value came to 0.36 ± 0.17 % ID/g, the “Biodistribution Kidneys” value amounted to 61.8 ± 25.9 % ID/g, the “Biodistribution Liver” value was 0.87 ± 0.28 % ID/g and the “Biodistribution Lung” value is 2.88 ± 2.96 % ID/g. Further, in series [3] (1 h p.i.), the “Biodistribution Muscle” value came out at 0.13 ± 0.04 % ID/g, the “Biodistribution Pancreas” value turned out to be 0.25 ± 0.06 % ID/g, the “Biodistribution Parotid gland” value is given as 0.62 ± 0.20 % ID/g and the “Biodistribution Spleen” value amounted to 2.51 ± 0.95 % ID/g. Moreover, in series [3] (1 h p.i.), the “Biodistribution Stomach” value worked out at 0.30 ± 0.09 % ID/g, the “Biodistribution Submandibular gland” value is listed as 0.37 ± 0.08 % ID/g, the “Biodistribution Tumor” value turned out to be 5.31 ± 0.94 % ID/g and the “Ratio Tumor-to-blood” value came out at 5.57 ± 1.18. In addition, in series [3] (1 h p.i.), the “Ratio Tumor-to-kidney” value is recorded as 0.09 ± 0.03, the “Ratio Tumor-to-liver” value was found to be 6.61 ± 2.19, the “Ratio Tumor-to-muscle” value came to 44.1 ± 9.0 and the “Ratio Tumor-to-parotid gland” value came to 9.09 ± 3.13. For the same molecule, the “Ratio Tumor-to-submandibular gland” value in series [3] (1 h p.i.) came to 14.7 ± 3.5. Besides, in series [3] (24 h p.i.), the “Biodistribution Adrenals” value amounted to 0.04 ± 0.01 % ID/g, the “Biodistribution Bone” value is on record as 0.02 ± 0.01 % ID/g, the “Biodistribution Heart” value came out at 0.02 ± 0.01 % ID/g and the “Biodistribution Intestine” value worked out at 0.12 ± 0.06 % ID/g. For the same molecule, in series [3] (24 h p.i.), the “Biodistribution Kidneys” value stood at 0.31 ± 0.05 % ID/g, the “Biodistribution Liver” value is 0.13 ± 0.05 % ID/g, the “Biodistribution Lung” value worked out at 0.03 ± 0.01 % ID/g and the “Biodistribution Muscle” value was 0.01 ± 0.01 % ID/g. Also, in series [3] (24 h p.i.), the “Biodistribution Pancreas” value worked out at 0.02 ± 0.01 % ID/g, the “Biodistribution Parotid gland” value stood at 0.04 ± 0.02 % ID/g, the “Biodistribution Spleen” value is on record as 0.09 ± 0.01 % ID/g and the “Biodistribution Stomach” value came to 0.06 ± 0.04 % ID/g. In series [3] (24 h p.i.), the “Biodistribution Submandibular gland” value is reported as 0.03 ± 0.01 % ID/g, the “Biodistribution Tumor” value was found to be 1.20 ± 0.55 % ID/g, the “Ratio Tumor-to-blood” value came out at 947 ± 652 and the “Ratio Tumor-to-kidney” value was 3.80 ± 1.36. For the same molecule, in series [3] (24 h p.i.), the “Ratio Tumor-to-liver” value is 8.94 ± 2.94, the “Ratio Tumor-to-muscle” value was 127 ± 92, the “Ratio Tumor-to-parotid gland” value turned out to be 31.8 ± 9.3 and the “Ratio Tumor-to-submandibular gland” value turned out to be 34.5 ± 9.2. Besides, the “factor by which tumor-to-submandibular gland and tumor-to-parotid gland ratios are lower than for [177Lu]Lu-1” value in series [3] (24 h p.i.) is recorded as 8. The molecule further registered an IC50 in series [1] of 7.1 ± 0.7 nM.

In the case of `C#CC[C@H](NC(=O)N[C@@H](CCC(=O)N[C@H](CCCNC(=O)CCC(=O)NCCCC[C@@H](NC(=O)[C@@H](CNC(=O)c1ccc([Si](F)(C(C)(C)C)C(C)(C)C)cc1)NC(=O)CN1CCN(CC(=O)[O-])CCN(CC(=O)[O-])CCN(CC(=O)[O-])CC1)C(=O)O)C(=O)O)C(=O)O)C(=O)O.[Lu+3]` [^natLu/[^177Lu]Lu-10], the “%Internalization” value in series [2] is 1 h: 1.2 ± 0.4%. For the same molecule, the “%Internalization” value in series [2] (listed as [^177Lu]Lu-10) turned out to be 1.2 ± 0.4%. In series [3] (24 h p.i.), the “Biodistribution Adrenals” value was found to be 0.02 ± 0.02 % ID/g, the “Biodistribution Blood” value was 0.01 ± 0.01 % ID/g, the “Biodistribution Bone” value was determined as 0.03 ± 0.01 % ID/g and the “Biodistribution Heart” value amounted to 0.01 ± 0.00 % ID/g. In series [3] (24 h p.i.), the “Biodistribution Intestine” value is 0.32 ± 0.29 % ID/g, the “Biodistribution Kidneys” value is recorded as 1.29 ± 0.28 % ID/g, the “Biodistribution Liver” value was found to be 0.09 ± 0.04 % ID/g and the “Biodistribution Lung” value came out at 0.03 ± 0.03 % ID/g. For the same molecule, in series [3] (24 h p.i.), the “Biodistribution Pancreas” value amounted to 0.01 ± 0.01 % ID/g, the “Biodistribution Parotid gland” value is listed as 0.02 ± 0.00 % ID/g, the “Biodistribution Spleen” value came to 0.04 ± 0.00 % ID/g and the “Biodistribution Stomach” value was 0.12 ± 0.11 % ID/g. In series [3] (24 h p.i.), the “Biodistribution Submandibular gland” value came out at 0.02 ± 0.00 % ID/g, the “Biodistribution Tumor” value is 0.10 ± 0.03 % ID/g, the “Ratio Tumor-to-blood” value was 26.8 ± 16.9 and the “Ratio Tumor-to-kidney” value is listed as 0.08 ± 0.01. Besides, in series [3] (24 h p.i.), the “Ratio Tumor-to-liver” value was determined as 1.46 ± 0.88, the “Ratio Tumor-to-muscle” value is recorded as 27.7 ±10.9, the “Ratio Tumor-to-parotid gland” value was 6.38 ± 3.06 and the “Ratio Tumor-to-submandibular gland” value worked out at 6.11 ± 1.78. Besides, the “factor by which tumor-to-submandibular gland and tumor-to-parotid gland ratios are lower than for [177Lu]Lu-1” value in series [3] (24 h p.i.) stood at 45. Also, the IC50 in series [1] was 138 ± 53 nM.
